# Experiments:
# [1] = biological target: T1, Serine/threonine-protein kinase RIO1 (Homo sapiens) (UniProt Q9BRS2); assay: Selectivity interaction (KinomeScan (DiscoverX)) EUB0001049a RIOK1; conditions: at 1 µM
# T1 sequence (whole entry): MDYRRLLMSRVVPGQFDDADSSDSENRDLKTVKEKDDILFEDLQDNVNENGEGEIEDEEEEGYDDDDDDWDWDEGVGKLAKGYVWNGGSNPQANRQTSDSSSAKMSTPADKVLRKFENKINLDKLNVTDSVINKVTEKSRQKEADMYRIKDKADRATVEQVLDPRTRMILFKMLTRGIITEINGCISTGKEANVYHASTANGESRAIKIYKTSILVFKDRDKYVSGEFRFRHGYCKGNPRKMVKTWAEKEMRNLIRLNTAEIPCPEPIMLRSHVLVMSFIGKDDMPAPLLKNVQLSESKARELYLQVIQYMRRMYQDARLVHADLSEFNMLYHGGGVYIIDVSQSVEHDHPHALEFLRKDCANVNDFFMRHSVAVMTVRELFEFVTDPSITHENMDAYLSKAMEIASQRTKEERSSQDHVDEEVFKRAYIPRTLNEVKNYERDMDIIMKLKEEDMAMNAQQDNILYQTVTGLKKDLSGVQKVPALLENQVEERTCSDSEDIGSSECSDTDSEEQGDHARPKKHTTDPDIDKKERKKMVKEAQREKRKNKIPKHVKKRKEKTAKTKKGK
# [2] = tested on: Epidermal growth factor receptor (Homo sapiens), P00533 [UNDEFINED MUTATION]; assay: Selectivity interaction (KinomeScan (DiscoverX)) EUB0001049a EGFR; conditions: at 1 µM
# [3] = biological target: Mitogen-activated protein kinase 11 (Homo sapiens) (UniProt Q15759); assay: Selectivity interaction (Millipore kinase profiler) EUB0000124b MAPK11; conditions: at 10 µM
# [4] = biological target: Glycogen synthase kinase-3 beta (Homo sapiens, UniProt P49841); assay: Selectivity interaction (KinomeScan (DiscoverX)) EUB0000666a GSK3B; conditions: at 10 µM
# [5] = biological target: Myosin light chain kinase 2, skeletal/cardiac muscle (Homo sapiens) (UniProt Q9H1R3); assay: Selectivity interaction (KinomeScan (DiscoverX)) EUB0001079a MYLK2; conditions: at 1 µM
# [6] = biological target: Tyrosine-protein kinase CSK (Homo sapiens) (UniProt P41240); assay: Selectivity interaction (Kinase panel (Invitrogen)) EUB0000639a CSK; conditions: at 200 nM
# [7] = biological target: Ribosomal protein S6 kinase beta-1 (Homo sapiens, UniProt P23443); assay: Selectivity interaction (ActivX KiNativ screen (kinase selectivity in THP-1 cell lysates)) EUB0000639a RPS6KB1; type: subcellular; conditions: lysate, at 5 µM
# [8] = biological target: Tyrosine-protein kinase BTK (Homo sapiens, UniProt Q06187); assay: Selectivity interaction (Kinase screening (Nanosyn)) EUB0000604a BTK
# [9] = biological target: Mitogen-activated protein kinase 11 (Homo sapiens) (UniProt Q15759); assay: Selectivity interaction (Ambit KINOMEscan and KiNATiv profiling in Jurkat cells) EUB0000090b MAPK11; type: cell-based; conditions: at 1 µM
# [10] = biological target: DNA (cytosine-5)-methyltransferase 3B (Homo sapiens) (UniProt Q9UBC3); assay: Selectivity interaction (Methyltransferase screen (Scintillation proximity assays)) EUB0000255b DNMT3B
# [11] = biological target: T2, NUAK family SNF1-like kinase 2 (Homo sapiens) (UniProt Q9H093); conditions: at 10 µM
# T2 sequence (whole entry): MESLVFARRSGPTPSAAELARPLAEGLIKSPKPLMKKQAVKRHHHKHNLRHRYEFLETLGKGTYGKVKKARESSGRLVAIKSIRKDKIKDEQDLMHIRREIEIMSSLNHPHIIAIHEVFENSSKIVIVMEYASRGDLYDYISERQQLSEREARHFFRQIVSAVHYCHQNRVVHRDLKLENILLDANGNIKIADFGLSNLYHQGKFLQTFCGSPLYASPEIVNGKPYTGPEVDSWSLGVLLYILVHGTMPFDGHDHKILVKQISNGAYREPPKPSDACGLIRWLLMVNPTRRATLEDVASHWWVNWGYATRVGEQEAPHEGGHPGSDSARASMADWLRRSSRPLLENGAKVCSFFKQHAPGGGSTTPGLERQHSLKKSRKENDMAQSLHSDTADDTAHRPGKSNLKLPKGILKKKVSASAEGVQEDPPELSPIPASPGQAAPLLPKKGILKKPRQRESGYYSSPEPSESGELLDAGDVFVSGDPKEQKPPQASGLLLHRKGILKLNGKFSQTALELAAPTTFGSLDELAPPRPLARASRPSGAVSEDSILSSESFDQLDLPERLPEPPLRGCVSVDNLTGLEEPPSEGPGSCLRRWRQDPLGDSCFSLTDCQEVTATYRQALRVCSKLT
# [12] = tested on: Tyrosine-protein kinase ABL1 (Homo sapiens), P00519 [M351T]; conditions: at 10 µM
# [13] = biological target: Rho-associated protein kinase 1 (Homo sapiens) (UniProt Q13464); assay: Selectivity interaction (ActivX KiNativ screen (ex vivo kinase selectivity in human PBMCs)) EUB0001619a ROCK1; type: cell-based; conditions: PBMC, at 1 µM
# [14] = biological target: Phosphorylase b kinase gamma catalytic chain, skeletal muscle/heart isoform (Homo sapiens) (UniProt Q16816); assay: Selectivity interaction (KinomeScan (DiscoverX)) EUB0001619a PHKG1; conditions: at 1 µM
# [15] = biological target: Serine/threonine-protein kinase N1 (Homo sapiens, UniProt Q16512); assay: Selectivity interaction (ActivX KiNativ screen (ex vivo kinase selectivity in human PBMCs)) EUB0001619a PKN1; type: cell-based; conditions: PBMC, at 1 µM
# [16] = biological target: Tyrosine-protein kinase Fer (Homo sapiens) (UniProt P16591); assay: Selectivity interaction (KinomeScan (DiscoverX)) EUB0000655a FER; conditions: at 10 µM
# [17] = biological target: G protein-coupled receptor kinase 5 (Homo sapiens, UniProt P34947); assay: Selectivity interaction (SelectScreen profiling (Invitrogen)) EUB0000607a GRK5; conditions: at 2 µM
# Chain of G protein-coupled receptor kinase 5 (P34947 whole entry, looked up): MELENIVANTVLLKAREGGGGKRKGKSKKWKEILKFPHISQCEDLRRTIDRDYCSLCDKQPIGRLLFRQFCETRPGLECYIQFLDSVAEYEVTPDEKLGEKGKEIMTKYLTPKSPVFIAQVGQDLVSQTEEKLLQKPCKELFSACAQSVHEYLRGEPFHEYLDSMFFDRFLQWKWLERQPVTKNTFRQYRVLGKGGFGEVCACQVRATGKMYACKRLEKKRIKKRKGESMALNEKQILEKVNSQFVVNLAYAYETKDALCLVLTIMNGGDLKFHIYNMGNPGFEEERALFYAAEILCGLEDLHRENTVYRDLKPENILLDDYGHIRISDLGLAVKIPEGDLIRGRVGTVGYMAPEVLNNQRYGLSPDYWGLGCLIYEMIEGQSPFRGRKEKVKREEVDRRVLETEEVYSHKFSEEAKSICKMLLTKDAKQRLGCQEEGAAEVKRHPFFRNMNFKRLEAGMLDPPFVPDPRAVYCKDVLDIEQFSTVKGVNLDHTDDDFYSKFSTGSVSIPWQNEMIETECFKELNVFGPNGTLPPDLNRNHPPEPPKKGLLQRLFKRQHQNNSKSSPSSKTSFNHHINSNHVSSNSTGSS
# Chain of Mitogen-activated protein kinase 11 (Homo sapiens) (Q15759 whole entry): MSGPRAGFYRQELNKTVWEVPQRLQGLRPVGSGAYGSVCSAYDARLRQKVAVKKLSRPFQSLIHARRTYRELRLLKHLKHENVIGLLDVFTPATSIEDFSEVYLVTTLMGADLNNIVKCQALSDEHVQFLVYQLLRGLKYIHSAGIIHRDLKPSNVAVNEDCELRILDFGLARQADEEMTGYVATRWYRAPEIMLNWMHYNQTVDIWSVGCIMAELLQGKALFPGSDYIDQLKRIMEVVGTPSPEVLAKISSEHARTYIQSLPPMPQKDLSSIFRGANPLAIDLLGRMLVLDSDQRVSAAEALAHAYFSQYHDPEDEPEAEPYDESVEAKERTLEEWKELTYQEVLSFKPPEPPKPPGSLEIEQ
# Chain of Myosin light chain kinase 2, skeletal/cardiac muscle (Homo sapiens) (Q9H1R3 whole entry): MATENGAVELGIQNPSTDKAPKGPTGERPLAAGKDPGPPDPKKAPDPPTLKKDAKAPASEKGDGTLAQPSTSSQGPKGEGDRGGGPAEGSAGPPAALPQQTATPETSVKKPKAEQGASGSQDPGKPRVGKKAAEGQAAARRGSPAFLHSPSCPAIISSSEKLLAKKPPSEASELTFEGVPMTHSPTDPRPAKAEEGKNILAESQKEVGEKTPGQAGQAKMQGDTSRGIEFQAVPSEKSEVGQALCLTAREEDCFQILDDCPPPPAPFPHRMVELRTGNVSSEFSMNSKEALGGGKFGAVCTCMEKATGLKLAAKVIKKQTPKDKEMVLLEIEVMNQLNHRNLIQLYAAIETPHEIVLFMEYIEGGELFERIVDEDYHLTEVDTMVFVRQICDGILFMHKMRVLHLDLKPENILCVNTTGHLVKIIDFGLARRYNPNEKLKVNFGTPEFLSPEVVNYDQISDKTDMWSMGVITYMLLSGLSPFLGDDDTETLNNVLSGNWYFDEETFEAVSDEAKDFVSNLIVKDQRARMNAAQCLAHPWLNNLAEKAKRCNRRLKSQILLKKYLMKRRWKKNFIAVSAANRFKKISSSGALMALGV
# Chain of Phosphorylase b kinase gamma catalytic chain, skeletal muscle/heart isoform (Homo sapiens) (Q16816 whole entry, looked up, canonical isoform): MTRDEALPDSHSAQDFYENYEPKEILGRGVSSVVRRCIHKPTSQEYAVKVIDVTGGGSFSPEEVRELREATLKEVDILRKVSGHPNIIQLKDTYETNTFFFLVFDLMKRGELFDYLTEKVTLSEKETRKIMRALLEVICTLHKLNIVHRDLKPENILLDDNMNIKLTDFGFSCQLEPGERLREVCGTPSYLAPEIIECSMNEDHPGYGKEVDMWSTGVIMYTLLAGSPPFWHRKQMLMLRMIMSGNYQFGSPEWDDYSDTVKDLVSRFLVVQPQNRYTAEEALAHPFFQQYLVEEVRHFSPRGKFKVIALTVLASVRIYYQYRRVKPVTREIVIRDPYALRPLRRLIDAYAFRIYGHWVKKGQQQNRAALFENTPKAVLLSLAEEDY
# Chain of Epidermal growth factor receptor (Homo sapiens), P00533 [UNDEFINED MUTATION] (P00533 whole entry, looked up, change not shown): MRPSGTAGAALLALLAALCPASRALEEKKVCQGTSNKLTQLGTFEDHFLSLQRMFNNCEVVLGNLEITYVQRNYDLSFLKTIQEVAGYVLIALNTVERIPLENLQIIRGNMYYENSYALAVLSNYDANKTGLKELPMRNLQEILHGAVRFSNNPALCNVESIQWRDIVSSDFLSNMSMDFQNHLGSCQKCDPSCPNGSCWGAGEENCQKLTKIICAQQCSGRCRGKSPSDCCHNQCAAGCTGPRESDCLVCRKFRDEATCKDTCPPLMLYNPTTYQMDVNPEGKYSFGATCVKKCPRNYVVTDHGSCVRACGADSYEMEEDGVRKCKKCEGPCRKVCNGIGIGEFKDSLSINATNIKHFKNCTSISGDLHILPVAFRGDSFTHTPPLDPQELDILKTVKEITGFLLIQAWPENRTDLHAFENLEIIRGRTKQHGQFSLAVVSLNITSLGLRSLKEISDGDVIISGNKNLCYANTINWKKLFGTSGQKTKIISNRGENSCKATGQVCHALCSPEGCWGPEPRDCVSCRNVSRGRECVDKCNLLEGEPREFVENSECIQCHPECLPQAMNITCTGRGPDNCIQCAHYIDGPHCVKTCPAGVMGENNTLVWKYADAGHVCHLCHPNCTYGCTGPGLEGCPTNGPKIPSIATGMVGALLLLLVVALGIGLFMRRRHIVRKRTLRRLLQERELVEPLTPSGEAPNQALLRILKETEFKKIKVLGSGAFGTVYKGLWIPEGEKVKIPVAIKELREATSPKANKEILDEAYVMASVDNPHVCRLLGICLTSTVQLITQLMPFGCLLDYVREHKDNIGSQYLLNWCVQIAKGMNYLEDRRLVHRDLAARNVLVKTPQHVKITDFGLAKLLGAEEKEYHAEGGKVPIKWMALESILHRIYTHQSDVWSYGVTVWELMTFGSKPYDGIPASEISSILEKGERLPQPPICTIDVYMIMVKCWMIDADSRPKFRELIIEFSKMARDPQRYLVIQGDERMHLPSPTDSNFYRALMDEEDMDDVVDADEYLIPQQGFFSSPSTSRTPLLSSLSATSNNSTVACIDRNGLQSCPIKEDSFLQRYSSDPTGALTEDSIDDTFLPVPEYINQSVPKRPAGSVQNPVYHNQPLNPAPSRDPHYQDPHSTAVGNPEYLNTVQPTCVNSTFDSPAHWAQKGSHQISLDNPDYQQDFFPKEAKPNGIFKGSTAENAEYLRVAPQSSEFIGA
# Chain of Tyrosine-protein kinase BTK (Q06187 whole entry): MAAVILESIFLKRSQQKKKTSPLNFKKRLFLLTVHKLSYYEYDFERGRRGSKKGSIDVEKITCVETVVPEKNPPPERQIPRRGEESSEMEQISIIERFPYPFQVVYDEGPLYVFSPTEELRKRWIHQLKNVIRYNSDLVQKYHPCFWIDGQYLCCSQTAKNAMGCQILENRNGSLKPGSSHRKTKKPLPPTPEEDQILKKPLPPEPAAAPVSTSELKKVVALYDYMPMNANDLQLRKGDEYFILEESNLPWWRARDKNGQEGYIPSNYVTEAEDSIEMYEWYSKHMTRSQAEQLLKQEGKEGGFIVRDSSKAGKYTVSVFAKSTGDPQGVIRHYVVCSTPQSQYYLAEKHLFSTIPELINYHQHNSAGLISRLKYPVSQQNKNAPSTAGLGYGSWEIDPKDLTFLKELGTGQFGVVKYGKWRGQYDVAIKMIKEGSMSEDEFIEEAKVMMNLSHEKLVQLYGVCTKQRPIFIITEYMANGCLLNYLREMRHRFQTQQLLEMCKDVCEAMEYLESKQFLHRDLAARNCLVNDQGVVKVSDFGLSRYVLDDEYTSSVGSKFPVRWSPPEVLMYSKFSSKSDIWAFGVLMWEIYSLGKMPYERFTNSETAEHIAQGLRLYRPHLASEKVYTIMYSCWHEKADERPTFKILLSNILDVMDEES
# Chain of Serine/threonine-protein kinase N1 (Q16512 2-942 limits assumed): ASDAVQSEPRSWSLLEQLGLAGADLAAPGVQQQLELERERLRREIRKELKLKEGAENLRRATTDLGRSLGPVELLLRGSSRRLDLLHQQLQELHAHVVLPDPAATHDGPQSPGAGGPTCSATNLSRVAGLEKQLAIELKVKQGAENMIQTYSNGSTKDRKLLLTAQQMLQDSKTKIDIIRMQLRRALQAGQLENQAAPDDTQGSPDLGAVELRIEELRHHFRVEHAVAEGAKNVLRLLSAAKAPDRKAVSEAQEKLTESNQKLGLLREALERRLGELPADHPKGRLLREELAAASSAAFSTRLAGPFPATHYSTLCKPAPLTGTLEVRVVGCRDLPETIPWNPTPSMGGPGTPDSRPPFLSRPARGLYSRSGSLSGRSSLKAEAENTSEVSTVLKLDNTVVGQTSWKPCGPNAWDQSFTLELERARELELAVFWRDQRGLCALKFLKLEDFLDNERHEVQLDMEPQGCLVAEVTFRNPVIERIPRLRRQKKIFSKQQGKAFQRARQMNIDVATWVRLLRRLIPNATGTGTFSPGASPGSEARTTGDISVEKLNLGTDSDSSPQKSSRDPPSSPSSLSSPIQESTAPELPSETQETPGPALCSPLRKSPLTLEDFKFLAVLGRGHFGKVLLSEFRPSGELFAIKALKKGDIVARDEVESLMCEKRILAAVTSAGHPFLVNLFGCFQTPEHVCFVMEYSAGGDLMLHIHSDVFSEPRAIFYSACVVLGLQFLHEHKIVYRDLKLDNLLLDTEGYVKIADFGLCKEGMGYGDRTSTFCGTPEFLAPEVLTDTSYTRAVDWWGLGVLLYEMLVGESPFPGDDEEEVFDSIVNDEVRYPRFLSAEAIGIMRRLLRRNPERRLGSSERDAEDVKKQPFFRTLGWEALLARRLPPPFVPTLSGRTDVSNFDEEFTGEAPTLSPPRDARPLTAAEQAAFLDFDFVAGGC
smiles,measurement,setting,value
COc1cc(Nc2nc(C)cc(-c3cnn4nc(OC)ccc34)n2)cc(C(F)(F)F)c1,% of control,[1],89%
same,% of control,[2],53%
CC(=O)Nc1cccc(-n2c(=O)n(C3CC3)c(=O)c3c(Nc4ccc(I)cc4F)n(C)c(=O)c(C)c32)c1,% of control,[3],104%
O=C(NOC[C@H](O)CO)c1ccc(F)c(F)c1Nc1ccc(I)cc1F,% of control,[4],68%
Nc1cnc(N2CCc3cc(S(=O)(=O)Nc4c(F)cc(Cl)cc4F)cc(N4CCCC4=O)c32)nc1 [TP-020n],% of control,[5],87%
CC[C@@H]1[C@H](F)C(=O)N[C@@H]1COc1nccc2cc(C(N)=O)c(OC)cc12 [ZIMLOVISERTIB],% of inhibition,[6],11.4%
same,% of inhibition,[7],3.9%
Cc1cnc(Nc2ccc(F)cc2Cl)nc1-c1c[nH]c(C(=O)N[C@H](CO)c2cccc(Cl)c2)c1,% of inhibition,[8],5%
CN(C)C/C=C/C(=O)Nc1ccc(C(=O)N2CCCC(Nc3ncc(Cl)c(-c4c[nH]c5ccccc45)n3)C2)cc1 (stereo not drawn),% of control,[9],97%
COCCN1CCC(c2cc(CN(C)C(=O)c3cccc(Oc4ccccc4)c3)ccn2)CC1,% activity,[10]; at 1 µM,> 95%
same,% activity,[10]; at 10 µM,> 85%
Cc1cc([C@@H](C)Nc2ccccc2C(=O)O)c2nc(N3CCOCC3)cc(=O)n2c1 [AZD-6482],% of control,[11],84%
same,% of control,[12],94%
N#Cc1cccc(-c2c[nH]c3ncnc(N4CCOCC4)c23)c1,% of inhibition,[13],2%
same,% of control,[14],81%
same,% of inhibition,[15],31%
CN(C)CCOc1ccc(-c2nc(-c3ccncc3)c(-c3ccc4c(c3)CC/C4=N\O)[nH]2)cc1,% of control,[16],100%
CNC(=O)Nc1ccc(-c2nc(N3CC4CCC(C3)O4)c3cnn(C4CCC5(CC4)OCCO5)c3n2)cc1,% of inhibition,[17],-4%

# Reference: ChEMBL document CHEMBL5465560, “Selectivity Literature for EUbOPEN Chemogenomic Library” (2024)
